Assay results from patent US10183943B2, “Heterocyclic compounds and their use in preventing or treating bacterial infections” (MUTABILIS, priority 2015, dated 2019).

Key:
CTX-M-15 = molecular target: T1, CTX-M-15 (Escherichia coli, UniProt Q9EXV5); assay: β-lactamase inhibitory activity, determination of IC50 (nitrocefin hydrolysis); assay type: biochemical; settings: class (A); nitrocefin 200 μM, 30 min pre-incubation; read-out: IC50 β-lactamase CTX-M-15
T1 construct: made in house; host or cells: E. coli
T1 sequence (Q9EXV5 entry or part of it): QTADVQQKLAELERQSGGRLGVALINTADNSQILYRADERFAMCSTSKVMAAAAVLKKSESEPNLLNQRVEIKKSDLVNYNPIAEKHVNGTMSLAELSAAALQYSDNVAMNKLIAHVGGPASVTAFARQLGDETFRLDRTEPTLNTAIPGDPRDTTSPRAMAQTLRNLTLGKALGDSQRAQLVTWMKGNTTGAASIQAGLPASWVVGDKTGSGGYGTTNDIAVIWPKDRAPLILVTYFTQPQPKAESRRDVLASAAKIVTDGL

OXA-1 = molecular target: T2, OXA-1 (Escherichia coli, UniProt P13661); assay: as above; assay type: biochemical; settings: class (D); nitrocefin 200 μM, 30 min pre-incubation; read-out: IC50 β-lactamase OXA-1
T2 construct: made in house; host or cells: E. coli
T2 sequence (P13661 26-276): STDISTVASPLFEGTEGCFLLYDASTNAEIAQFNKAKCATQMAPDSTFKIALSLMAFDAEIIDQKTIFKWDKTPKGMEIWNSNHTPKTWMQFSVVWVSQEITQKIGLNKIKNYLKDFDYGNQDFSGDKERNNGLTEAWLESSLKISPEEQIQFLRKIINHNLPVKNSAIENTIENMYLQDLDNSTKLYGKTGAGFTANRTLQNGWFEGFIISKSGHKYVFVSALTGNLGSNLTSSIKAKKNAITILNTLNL

TEM-1 = molecular target: T3, TEM-1 (Escherichia coli, UniProt P62593); assay: as above; assay type: biochemical
T3 construct: made in house; host or cells: E. coli
T3 sequence (P62593 24-286 limits assumed): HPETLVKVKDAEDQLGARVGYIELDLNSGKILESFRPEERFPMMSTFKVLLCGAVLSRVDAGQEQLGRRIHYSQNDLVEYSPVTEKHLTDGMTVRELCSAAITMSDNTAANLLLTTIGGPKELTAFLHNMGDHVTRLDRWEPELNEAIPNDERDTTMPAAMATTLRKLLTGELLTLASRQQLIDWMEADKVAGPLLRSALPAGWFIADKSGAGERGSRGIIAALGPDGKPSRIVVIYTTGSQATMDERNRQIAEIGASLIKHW

[1] = tested on: P. aeruginosa CIP107051 (TEM-24); assay: MIC of compounds alone, broth microdilution; assay type: cell-based; settings: Pseudomonas aeruginosa; strain CIP107051 (P. aeruginosa); read-out: MIC compounds of the invention alone
Procedure: (§1) Method 2: MIC of Compounds and Synergy with Ceftazidime Against Bacterial Isolates (Table 2 and 3)
(§2) Compounds of the present invention were assessed against genotyped bacterial strains alone or in combination with the β-lactam ceftazidime (CAZ). In the assays, MICs of said compounds, or of ceftazidime at fixed concentrations of said compounds were determined by the broth microdilution method according to the Clinical Laboratory Standards Institute (CLSI-M7-A7). Briefly, compounds alone according to the invention were prepared in DMSO and spotted (2 μL each) on sterile polystyrene plates (Corning, 3788). Compounds and ceftazidime dilutions were prepared in DMSO and spotted (1 μL each) on sterile polystyrene plates (Corning, 3788). Log phase bacterial suspensions were adjusted to a final density of 5×10^5 cfu/mL in cation-adjusted Mueller-Hinton broth (Becton-Dickinson) and added to each well (98 μL). Microplates were incubated for 16-20 h at 35° C. in ambient air. The MIC of the compounds was defined as the lowest concentration of said compounds that prevented bacterial growth as read by visual inspection. The MIC of ceftazidime at each compound concentration was defined as the lowest concentration of ceftazidime that prevented bacterial growth as read by visual inspection.

E. cloacae P99 (AmpC) = assay: MIC of compounds alone, broth microdilution; assay type: cell-based; settings: Enterobacter cloacae; strain P99 (E. cloacae); read-out: MIC compounds of the invention alone
Procedure: as §1, §2

[2] = tested on: E. coli 190317 (TEM-1, SHV-12, CTX-M-15, OXA-1); assay: MIC of compounds alone, broth microdilution; assay type: cell-based; settings: Escherichia coli, read-out: MIC compounds of the invention alone
Procedure: as §1, §2

E. coli RGN238 (OXA-1) = assay: MIC of compounds alone, broth microdilution; assay type: cell-based; settings: Escherichia coli; strain RGN238 (E. coli); read-out: MIC compounds of the invention alone
Procedure: as §1, §2

[3] = tested on: K. pneumoniae 6299 (TEM-1, SHV-11, OXA-163); assay: MIC of compounds alone, broth microdilution; assay type: cell-based; settings: Klebsiella pneumoniae; strain 6299 (K. pneumoniae); read-out: MIC compounds of the invention alone
Procedure: as §1, §2

[4] = tested on: K. pneumoniae BAA-1898 (TEM-1, SHV-11, SHV-12, KPC-2); assay: MIC of compounds alone, broth microdilution; assay type: cell-based; settings: Klebsiella pneumoniae, BAA1898; strain BAA-1898 (K. pneumoniae); read-out: MIC compounds of the invention alone
Procedure: as §1, §2

[5] = tested on: E. coli 131119 (TEM-1, OXA-48); assay: MIC of compounds alone, broth microdilution; assay type: cell-based; settings: Escherichia coli; strain 131119 (E. coli); read-out: MIC compounds of the invention alone
Procedure: as §1, §2

AmpC (P99) = AmpC (P99) (Enterobacter cloacae, UniProt P05364); assay: β-lactamase inhibitory activity, determination of IC50 (nitrocefin hydrolysis)
Chain of AmpC (P99) (P05364 21-381): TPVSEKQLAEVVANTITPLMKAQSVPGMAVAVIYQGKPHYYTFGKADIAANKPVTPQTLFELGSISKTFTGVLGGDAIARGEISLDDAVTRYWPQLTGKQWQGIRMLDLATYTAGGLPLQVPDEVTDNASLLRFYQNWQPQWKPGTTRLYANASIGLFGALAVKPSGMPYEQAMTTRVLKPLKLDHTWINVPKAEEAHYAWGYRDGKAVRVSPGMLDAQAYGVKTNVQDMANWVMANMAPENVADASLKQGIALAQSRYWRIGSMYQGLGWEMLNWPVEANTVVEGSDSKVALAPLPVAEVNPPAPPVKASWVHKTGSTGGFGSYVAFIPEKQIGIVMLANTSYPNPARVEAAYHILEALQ

OXA-11 = molecular target: T4, OXA-11 (Pseudomonas aeruginosa, UniProt Q06778); assay: as above; assay type: biochemical
T4 construct: made in house; host or cells: E. coli
T4 sequence (Q06778 21-266): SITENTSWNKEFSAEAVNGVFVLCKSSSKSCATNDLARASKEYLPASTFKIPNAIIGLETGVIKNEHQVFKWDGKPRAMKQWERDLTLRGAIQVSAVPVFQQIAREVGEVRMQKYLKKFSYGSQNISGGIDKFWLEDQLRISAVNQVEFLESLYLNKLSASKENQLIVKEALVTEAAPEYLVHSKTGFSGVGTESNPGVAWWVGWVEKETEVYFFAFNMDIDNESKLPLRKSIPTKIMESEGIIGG

OXA-48 = molecular target: T5, OXA-48 (Klebsiella pneumoniae, UniProt Q6XEC0); assay: as above; assay type: biochemical; settings: class (D); nitrocefin 200 μM, 30 min pre-incubation; read-out: IC50 β-lactamase OXA-48
T5 construct: made in house; host or cells: E. coli
T5 sequence (Q6XEC0 23-265 limits assumed): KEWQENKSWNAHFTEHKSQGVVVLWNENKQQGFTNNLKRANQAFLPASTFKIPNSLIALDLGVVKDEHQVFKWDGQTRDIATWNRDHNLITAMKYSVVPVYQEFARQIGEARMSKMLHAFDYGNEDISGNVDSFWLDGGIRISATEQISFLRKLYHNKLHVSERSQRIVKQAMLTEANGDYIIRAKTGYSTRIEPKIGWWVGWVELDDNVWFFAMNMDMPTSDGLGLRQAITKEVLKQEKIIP

SHV-1 = molecular target: T6, SHV-1 (Klebsiella pneumoniae, UniProt P0AD64); assay: as above; assay type: biochemical
T6 construct: made in house; host or cells: E. coli
T6 sequence (P0AD64 22-286): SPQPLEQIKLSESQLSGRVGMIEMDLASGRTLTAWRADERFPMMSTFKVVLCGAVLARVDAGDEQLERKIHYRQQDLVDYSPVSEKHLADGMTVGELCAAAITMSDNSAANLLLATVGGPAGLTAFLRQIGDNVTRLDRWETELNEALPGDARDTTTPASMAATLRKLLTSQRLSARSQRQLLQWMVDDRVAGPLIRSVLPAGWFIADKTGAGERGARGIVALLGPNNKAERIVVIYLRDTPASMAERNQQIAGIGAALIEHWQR

KPC-2 = molecular target: T7, KPC-2 (Klebsiella pneumoniae, UniProt Q9F663); assay: as above; assay type: biochemical; settings: class (A); nitrocefin 200 μM, 30 min pre-incubation; read-out: IC50 β-lactamase KPC-2
T7 construct: made in house; host or cells: E. coli
T7 sequence (Q9F663 25-293 limits assumed): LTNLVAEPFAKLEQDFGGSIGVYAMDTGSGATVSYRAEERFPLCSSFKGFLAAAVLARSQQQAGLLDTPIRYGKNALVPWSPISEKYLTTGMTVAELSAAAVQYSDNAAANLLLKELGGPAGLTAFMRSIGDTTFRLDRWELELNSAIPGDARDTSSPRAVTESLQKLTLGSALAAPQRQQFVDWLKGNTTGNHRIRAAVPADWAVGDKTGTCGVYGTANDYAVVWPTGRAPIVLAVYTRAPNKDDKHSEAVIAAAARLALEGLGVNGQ

AmpC P. aeruginosa = AmpC P. aeruginosa (Pseudomonas aeruginosa, UniProt P24735); assay: as above
Chain of AmpC P. aeruginosa (P24735 27-397): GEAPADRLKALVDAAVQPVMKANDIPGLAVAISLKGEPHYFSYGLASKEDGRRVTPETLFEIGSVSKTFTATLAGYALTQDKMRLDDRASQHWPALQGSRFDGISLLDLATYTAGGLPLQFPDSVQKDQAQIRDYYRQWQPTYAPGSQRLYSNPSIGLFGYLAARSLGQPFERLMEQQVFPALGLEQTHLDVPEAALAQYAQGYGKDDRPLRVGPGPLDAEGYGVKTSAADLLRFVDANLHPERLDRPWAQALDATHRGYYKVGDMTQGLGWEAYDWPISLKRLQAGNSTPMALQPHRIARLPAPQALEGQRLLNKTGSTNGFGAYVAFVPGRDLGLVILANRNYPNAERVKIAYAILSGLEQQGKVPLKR

OXA-15 = molecular target: T8, OXA-15 (Pseudomonas aeruginosa, UniProt Q51574); assay: biochemical
T8 construct: made in house; host or cells: E. coli
T8 sequence (Q51574 22-275): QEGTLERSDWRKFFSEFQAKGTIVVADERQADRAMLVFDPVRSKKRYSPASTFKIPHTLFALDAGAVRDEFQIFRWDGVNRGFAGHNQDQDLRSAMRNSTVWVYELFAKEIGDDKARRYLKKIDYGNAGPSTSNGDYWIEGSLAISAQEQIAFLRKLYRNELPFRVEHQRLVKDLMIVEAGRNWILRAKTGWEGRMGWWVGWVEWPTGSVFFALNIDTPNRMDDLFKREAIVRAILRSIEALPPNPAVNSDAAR

| Structure (SMILES) | IC50 (CTX-M-15) | IC50 (OXA-1) | IC50 (TEM-1) | MIC [1] | MIC (E. cloacae P99 (AmpC)) | MIC [2] | MIC (E. coli RGN238 (OXA-1)) | MIC [3] | MIC [4] | MIC [5] | IC50 (AmpC (P99)) | IC50 (OXA-11) | IC50 (OXA-48) | IC50 (SHV-1) | IC50 (KPC-2) | IC50 (AmpC P. aeruginosa) | IC50 (OXA-15) |
| --- | --- | --- | --- | --- | --- | --- | --- | --- | --- | --- | --- | --- | --- | --- | --- | --- | --- |
| O=C1N2CC=C(c3cn[nH]c3)C(C2)N1OS(=O)(=O)[O-].[Na+] (centres unmarked) [Example 1, Sodium (7-oxo-4-pyrazol-4-yl-1,6-diaza-bicyclo[3.2.1]oct-3-en-6-yl) sulfate] | 26 nM | 1400 nM | 13 nM | > 32 µg/mL | > 32 µg/mL | 32 µg/mL | > 32 µg/mL | > 32 µg/mL | > 32 µg/mL | > 32 µg/mL | 6100 nM | 2900 nM | 8.9 nM | 29 nM | 770 nM | 9300 nM | 590 nM |
| Cn1nccc1C1=CCN2CC1N(OS(=O)(=O)[O-])C2=O.[Na+] (centres unmarked) [Example 2, Sodium [4-(2-methylpyrazol-3-yl)-7-oxo-1,6-diazabicyclo[3.2.1]oct-3-en-6-yl] sulfate] | 33 nM | 64 nM | 2.7 nM | > 32 µg/mL | > 32 µg/mL | > 32 µg/mL | > 32 µg/mL | > 32 µg/mL | > 32 µg/mL | > 32 µg/mL | 670 nM | 910 nM | 2.8 nM | 6.4 nM | 1200 nM | 960 nM | 9.8 nM |
| O=C1N2CC=C(c3ncco3)C(C2)N1OS(=O)(=O)[O-].[Na+] (centres unmarked) [Example 4, Sodium [4-(oxazol-2-yl)-7-oxo-1,6-diazabicyclo[3.2.1]oct-3-en-6-yl]sulfate] | 7.5 nM | 260 nM | 2.9 nM | > 32 µg/mL | 16 µg/mL | 8 µg/mL | 32 µg/mL | > 32 µg/mL | > 32 µg/mL | 16 µg/mL | 1500 nM | 800 nM | 2.9 nM | 8.4 nM | 390 nM | 940 nM | 46 nM |
| O=C1N2CC=C(c3cccnc3)C(C2)N1OS(=O)(=O)[O-].[Na+] (centres unmarked) [Example 9, Sodium [4-(3-pyridyl)-7-oxo-1,6-diazabicyclo[3.2.1]oct-3-en-6-yl]sulfate] | 4.8 nM | 130 nM | 3.8 nM | > 32 µg/mL | > 32 µg/mL |  | > 32 µg/mL | > 32 µg/mL | > 32 µg/mL | 16 µg/mL | 770 nM | 730 nM | 1.4 nM | 11 nM | 68 nM | 810 nM | 52 nM |
| Cn1ccc(C2=CCN3CC2N(OS(=O)(=O)[O-])C3=O)cc1=O.[Na+] (centres unmarked) [Example 13, Sodium [4-(1-methyl-2-oxo-4-pyridyl)-7-oxo-1,6-diazabicyclo[3.2.1]oct-3-en-6-yl] sulfate] | 6 nM | 820 nM | 6.1 nM | > 32 µg/mL | 16 µg/mL |  | > 32 µg/mL | > 32 µg/mL | > 32 µg/mL | 8 µg/mL | 2800 nM | 730 nM | 2.3 nM | 8.8 nM | 63 nM | 3200 nM | 230 nM |
| Cn1cc(C2=CCN3CC2N(OS(=O)(=O)[O-])C3=O)ncc1=O.[Na+] (centres unmarked) [Example 14, Sodium [4-(4-methyl-5-oxo-pyrazin-2-yl)-7-oxo-1,6-diazabicyclo[3.2.1]oct-3-en-6-yl] sulfate] | 2.7 nM | 730 nM | 1.6 nM | > 32 µg/mL | 8 µg/mL |  | > 32 µg/mL | > 32 µg/mL | > 32 µg/mL | 8 µg/mL | 890 nM | 920 nM | 1.4 nM | 2.9 nM | 52 nM | 1900 nM | 33 nM |
| O=C1N2CC(c3cnoc3)=CC(C2)N1OS(=O)(=O)[O-].[Na+] (centres unmarked) [Example 26, sodium [3-(isoxazol-4-yl)-7-oxo-1,6-diazabicyclo[3.2.1]oct-3-en-6-yl] sulfate] | 5.7 nM | 370 nM | 4.8 nM | > 32 µg/mL | 8 µg/mL |  | 4 µg/mL | 8 µg/mL | 8 µg/mL | 2 µg/mL | 51 nM | 140 nM | 6.6 nM | 13 nM | 4.2 nM | 74 nM | 210 nM |
| O=C1N2CC=C(c3ccns3)C(C2)N1OS(=O)(=O)[O-].[Na+] (centres unmarked) [Example 30, Sodium [4-(isothiazol-5-yl)-7-oxo-1,6-diazabicyclo[3.2.1]oct-3-en-6-yl] sulfate] | 1.8 nM | 150 nM | 5.2 nM | > 32 µg/mL | 8 µg/mL |  | > 32 µg/mL | > 32 µg/mL | > 32 µg/mL | 4 µg/mL | 200 nM | 720 nM | 2.5 nM | 15 nM | 63 nM | 780 nM | 23 nM |
| O=C1N2CC(n3ccnc3)=CC(C2)N1OS(=O)(=O)[O-].[Na+] (centres unmarked) [Example 34, Sodium [3-imidazol-1-yl-7-oxo-1,6-diazabicyclo[3.2.1]oct-3-en-6-yl]sulfate] | 2.7 nM | 410 nM | 7.2 nM | > 32 µg/mL | 8 µg/mL |  | 16 µg/mL | 32 µg/mL | 16 µg/mL | 8 µg/mL | 59 nM | 650 nM | 220 nM | 21 nM | 24 nM | 500 nM | 220 nM |
| O=C1N2CC(c3cnco3)=CC(C2)N1OS(=O)(=O)[O-].[Na+] (centres unmarked) [Example 35, Sodium [3-(oxazol-5-yl)-7-oxo-1,6-diazabicyclo[3.2.1]oct-3-en-6-yl]sulfate] | 0.81 nM | 1400 nM | 2.3 nM | > 32 µg/mL | 8 µg/mL |  | 4 µg/mL | 8 µg/mL | 4 µg/mL | 2 µg/mL | 51 nM | 300 nM | 2.5 nM | 8.4 nM | 8.2 nM | 210 nM | 74 nM |
| O=C1N2CC(c3ncon3)=CC(C2)N1OS(=O)(=O)[O-].[Na+] (centres unmarked) [Example 36, Sodium [3-(1,2,4-oxadiazol-3-yl)-7-oxo-1,6-diazabicyclo[3.2.1]oct-3-en-6-yl] sulfate] | 1.1 nM | 2400 nM | 2.3 nM | > 32 µg/mL | 8 µg/mL |  | 4 µg/mL | 16 µg/mL | 8 µg/mL | 1 µg/mL | 43 nM | 920 nM | 2.1 nM | 16 nM | 39 nM | 160 nM | 660 nM |
